# Tests used:
# SHP-2 enzyme = biological target: T1, SHP-2 enzyme (Homo sapiens, UniProt Q06124); assay: Phosphatase activity assay (Homogeneous Full Length SHP-2 Assay Kit, DiFMUP substrate); type: biochemical; settings: full length SHP-2 activated with 0.5 μM SHP-2 activating Peptide; 1 hour co-incubation; DiFMUP 50 μM, 30 min
# T1 construct: Homogeneous Full Length SHP-2 Assay Kit (BPS Bioscience #79330); purchased BPS Bioscience 79330
# T1 sequence (Q06124 1-593): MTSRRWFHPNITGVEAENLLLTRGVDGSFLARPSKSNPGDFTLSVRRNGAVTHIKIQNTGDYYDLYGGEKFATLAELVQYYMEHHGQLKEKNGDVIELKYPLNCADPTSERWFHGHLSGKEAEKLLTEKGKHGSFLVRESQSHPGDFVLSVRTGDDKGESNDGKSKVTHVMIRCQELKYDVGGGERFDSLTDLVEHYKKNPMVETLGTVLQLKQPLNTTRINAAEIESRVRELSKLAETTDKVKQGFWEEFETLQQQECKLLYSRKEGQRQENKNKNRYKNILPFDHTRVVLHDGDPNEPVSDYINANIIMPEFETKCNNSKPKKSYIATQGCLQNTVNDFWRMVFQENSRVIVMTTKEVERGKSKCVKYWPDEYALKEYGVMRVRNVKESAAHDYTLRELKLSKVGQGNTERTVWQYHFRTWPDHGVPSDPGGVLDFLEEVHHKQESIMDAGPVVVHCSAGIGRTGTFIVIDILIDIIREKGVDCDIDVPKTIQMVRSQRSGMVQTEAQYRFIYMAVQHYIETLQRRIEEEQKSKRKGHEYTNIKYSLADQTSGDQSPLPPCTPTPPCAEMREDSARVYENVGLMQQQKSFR
# Procedure: IC50 values were assayed using Homogeneous Full Length SHP-2 Assay Kit (BPS Bioscience #79330), which uses 6,8-difluoro-4-methylumbelliferone phosphate (DiFMUP) as the reaction substrate. SHP2 enzyme solution (diluted to 0.04 ng/μL with 1*buffer) was mixed with 0.5 μM SHP-2 activating Peptide in a 1*buffer solution containing 2.5 mM DTT to activate PTP. At the same time, DMSO (0.1% (V/V)) or the compounds (concentration: 0.5 nM to 1 μM) were added, mixed and co-incubated for 1 hour. DiFMUP (50 μM, total reaction system volume of 20 μL) was added, and the reaction was started. After 30 min of incubation, the fluorescence intensity of the reaction system (excitation wavelength: 350 nm, emission wavelength: 460 nm) was measured by Tecan Infinite M1000.
# MV-4-11 cell = assay: Cell proliferation assay (Cell Titer-Glo); type: cell-based; settings: inhibition of MV-4-11 cell proliferation, Cell Titer-Glo on day 4
# Procedure: MV 411 cells (20000 cells/well) were inoculated and cultured in 96 (Corning #3916) well plates, and the medium was 80 μL/well (IMDM with 10% fetal bovine serum (FBS), Gibco #10099-141C). After 24 hours of incubation, 20 μL of the compounds of the present invention configured to different concentrations (DMSO final concentration of 0.1% (V/V)) were added. On day 4, 60 μL of Cell Titer-Glo (Promega #G7558) was added to each well and mixed at 80 rpm, 25° C., 15 min, and the fluorescence values were detected by Victor X5 (PE).
# hERG potassium channel = biological target: T2, hERG potassium channel (Homo sapiens, UniProt Q12809); assay: Inhibition of hERG potassium channel current, manual patch clamp in CHO cells stably expressing hERG; type: cell-based; settings: whole-cell patch clamp, room temperature
# T2 construct: expressed in transfected cells; host or cells: CHO (Chinese hamster ovary) cells stably expressing hERG
# T2 sequence (Q12809 whole entry): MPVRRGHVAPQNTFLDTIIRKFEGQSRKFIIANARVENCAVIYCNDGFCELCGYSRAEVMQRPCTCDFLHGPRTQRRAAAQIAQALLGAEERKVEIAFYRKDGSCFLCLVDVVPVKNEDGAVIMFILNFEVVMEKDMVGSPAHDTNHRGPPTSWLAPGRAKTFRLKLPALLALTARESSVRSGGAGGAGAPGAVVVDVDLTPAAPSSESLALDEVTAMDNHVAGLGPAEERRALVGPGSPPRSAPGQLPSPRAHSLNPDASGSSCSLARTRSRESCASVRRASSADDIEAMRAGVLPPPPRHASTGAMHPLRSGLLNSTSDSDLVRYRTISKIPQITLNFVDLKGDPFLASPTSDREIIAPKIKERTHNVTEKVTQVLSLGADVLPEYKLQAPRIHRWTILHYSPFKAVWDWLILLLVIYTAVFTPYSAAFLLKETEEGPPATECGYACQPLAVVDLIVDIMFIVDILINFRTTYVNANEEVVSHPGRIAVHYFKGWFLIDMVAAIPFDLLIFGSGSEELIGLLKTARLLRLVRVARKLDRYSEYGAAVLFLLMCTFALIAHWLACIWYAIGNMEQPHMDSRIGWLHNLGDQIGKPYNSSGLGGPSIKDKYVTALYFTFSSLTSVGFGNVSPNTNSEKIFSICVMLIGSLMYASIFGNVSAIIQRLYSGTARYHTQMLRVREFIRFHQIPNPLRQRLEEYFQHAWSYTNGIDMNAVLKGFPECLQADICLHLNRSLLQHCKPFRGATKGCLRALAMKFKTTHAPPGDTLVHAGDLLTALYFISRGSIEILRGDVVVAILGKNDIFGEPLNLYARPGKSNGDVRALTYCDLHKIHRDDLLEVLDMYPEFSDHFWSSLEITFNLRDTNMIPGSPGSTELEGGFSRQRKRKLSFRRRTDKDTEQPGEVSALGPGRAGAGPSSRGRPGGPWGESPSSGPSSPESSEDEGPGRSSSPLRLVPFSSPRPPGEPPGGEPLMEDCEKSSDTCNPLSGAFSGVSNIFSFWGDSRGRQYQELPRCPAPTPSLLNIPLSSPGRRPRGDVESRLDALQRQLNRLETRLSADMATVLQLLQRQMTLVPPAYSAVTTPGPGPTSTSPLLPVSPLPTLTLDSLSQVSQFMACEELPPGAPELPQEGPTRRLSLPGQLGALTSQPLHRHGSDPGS
# Procedure: The electrophysiological manual patch clamp method was used to test the effect of the compounds on the current of hERG potassium channel (human Ether-a-go-go Related Gene potassium channel).
# CHO cells stably expressing hERG were cultured in a cell Petri dish having a diameter of 35 mm, placed in an incubator at 37° C. and with 5% CO2, and passaged every 48 hours at a ratio of 1:5. The culture medium formula was: 90% F12 (Invitrogen), 10% fetal bovine serum (Gibco), 100 μg/mL G418 (Invitrogen), and 100 μg/mL Hygromycin B (Invitrogen). On the day of the test, the cell culture medium was sucked away, and the cells were washed with extracellular fluid once. Then 0.25% Trypsin-EDTA (Invitrogen) solution was added, and the cells was digested at room temperature for 3-5 min. The digestive fluid was sucked away, and the cells were resuspended with extracellular fluid, and transferred to the experimental dish for electrophysiological recording.
# On the day of test, the compounds were prepared using DMSO into mother solution with concentration of 20 mM, and then serial dilution with DMSO was performed three times, i.e., 10 μL of the solution was added to 20 μL of DMSO, then 10 μL of the serial diluted solution of the compounds in DMSO was added to 4990 μL of extracellular fluid, and 500 times of dilution was performed to obtain the final concentration to be tested.
# The hERG potassium channel currents of CHO (Chinese hamster ovary) cells stably expressing hERG potassium channels were recorded using whole-cell patch clamp technique at room temperature. The glass microelectrodes were made from glass electrode blanks (BF150-86-10, Sutter) by pulling through a puller, and the tip resistance was about 2-5 MΩ after filling the electrode with the inner liquid. The glass microelectrodes could be connected to a patch clamp amplifier by inserting them into the amplifier probe. Clamp voltage and data recording were controlled and recorded by a computer using software pClamp 10 with a sampling frequency of 10 kHz and a filtering frequency of 2 kHz. After obtaining a whole-cell recording, the cell was clamped at −80 mV, and the step voltage inducing hERG potassium current (IhERG) was given a depolarizing voltage from −80 mV to +20 mV for 2 s, and repolarized to −50 mV for 1 s, then returning to −80 mV. This voltage stimulus was given every 10 s. After it is determined that the potassium hERG current was stable (for 1 min), the dosing process was initiated. The compounds were administered for at least 1 min at each tested concentration, and at least 2 cells (n≥2) were tested at each concentration.
# Data analysis and processing were conducted using softwares pClamp 10, GraphPad Prism 5, and Excel. The degree of inhibitory activity of different compound concentrations on hERG potassium current (peak value of hERG tail current induced at −50 mV) was calculated using the following formula: Inhibition %=[1−(I/Io)]×100%. Among them, Inhibition % represents the percentage inhibition of the compound on hERG potassium current, and I and Io represent the amplitude of hERG potassium current after and before dosing, respectively.
# IC50 of the compounds was calculated using software GraphPad Prism 5 by fitting the following equation: Y=Bottom+(Top−Bottom)/(1+10^(Log IC50−X)*HillSlope). Among them, X is the Log value of the detection concentration of test material, Y is the inhibition percentage at the corresponding concentration, and Bottom and Top are the minimum and maximum inhibition percentages, respectively.
IC50 (SHP-2 enzyme) [nM],"IC50 (MV-4-11 cell; Homo sapiens, MV4-11, 96 h) [nM]",IC50 (MV-4-11 cell) [nM],Compound,IC50 (hERG potassium channel) [nM]
6,253,,Nc1nc(N2CCC3(CC2)Cc2cc(F)ccc2C3N)nnc1C(=O)N1CCCn2nccc21 (stereo not drawn) [Compound 59],> 30000
4,25,,COc1ccc2c(c1)C(N)C1(CCN(c3cnc(C(=O)N4CCc5nc(N)sc5C4)c(N)n3)CC1)C2 (stereo not drawn) [Compound 82],> 30000
7,110,,CC1(C)CN(C(=O)c2ncc(N3CCC4(CC3)Cc3ccc(F)cc3C4N)nc2N)Cc2sc(N)nc21 (stereo not drawn) [Compound 94],
3,176,,Nc1ccc2c(n1)CCN2C(=O)c1ncc(N2CCC3(CC2)Cc2ccc(F)cc2C3N)nc1N (stereo not drawn) [Compound 95],
4,157,,Nc1ccc2c(c1)CCN2C(=O)c1ncc(N2CCC3(CC2)Cc2ccccc2C3N)nc1N (stereo not drawn) [Compound 96],
10,46,,Cc1cc2c(cc1C)C(N)C1(CCN(c3cnc(C(=O)N4CCc5nc(N)sc5C4)c(N)n3)CC1)C2 (stereo not drawn) [Compound 99],
7,51,,Cc1nc(C(=O)N2CCc3nc(N)ccc32)c(N)nc1N1CCC2(CC1)Cc1ccccc1C2N (stereo not drawn) [Compound 100],
18,85,,Cc1nc(C(=O)N2Cc3sc(N)nc3C(C)(C)C2)c(N)nc1N1CCC2(CC1)Cc1ccccc1C2N (stereo not drawn) [Compound 101],
11,57,,Cc1ccc2c(c1)C(N)C1(CCN(c3cnc(C(=O)N4Cc5sc(N)nc5C(C)(C)C4)c(N)n3)CC1)C2 (stereo not drawn) [Compound 102],
13,65,,CNc1ccc2c(n1)CCN2C(=O)c1nc(C)c(N2CCC3(CC2)Cc2ccccc2C3N)nc1N (stereo not drawn) [Compound 103],
10,58,,Cc1ccc2c(c1)C(N)C1(CCN(c3nc(N)c(C(=O)N4CCc5nc(N)ccc54)nc3C)CC1)C2 (stereo not drawn) [Compound 104],
13,25,,Cc1nc(C(=O)N2Cc3sc(N)nc3C(C)C2)c(N)nc1N1CCC2(CC1)Cc1ccccc1C2N (stereo not drawn) [Compound 105],
15,164,,Nc1ccc2c(n1)CCN2C(=O)c1nc(C2CC2)c(N2CCC3(CC2)Cc2ccccc2C3N)nc1N (stereo not drawn) [Compound 106],
9,119,,Cc1nc(C(=O)N2CCc3nc(N)ccc32)c(N)nc1N1CCC2(CC1)Cc1ccc(F)cc1C2N (stereo not drawn) [Compound 107],
3,8,,[2H]C1([2H])CN(C(=O)c2ncc(N3CCC4(CC3)Cc3ccccc3C4N)nc2N)Cc2sc(N)nc21 (stereo not drawn) [Compound 108],> 30000
3,58,,Nc1nc2c(cc1F)N(C(=O)c1ncc(N3CCC4(CC3)Cc3ccccc3C4N)nc1N)CC2 (stereo not drawn) [Compound 109],
9,21,,Nc1nc2c(s1)CN(C(=O)c1ncc(N3CCC4(CC3)Cc3ccc(C5CC5)cc3C4N)nc1N)CC2 (stereo not drawn) [Compound 110],
14,18,,Cc1nc(N2CCC3(CC2)Cc2ccccc2C3N)c(CO)nc1C(=O)N1Cc2sc(N)nc2C(F)(F)C1 (stereo not drawn) [Compound 112],
6,< 5,,Cc1ccc2c(c1)C(N)C1(CCN(c3ncc(C(=O)N4Cc5sc(N)nc5C(F)(F)C4)nc3CO)CC1)C2 (stereo not drawn) [Compound 113],
4,4,,Nc1nc2c(s1)CN(C(=O)c1nc(F)c(N3CCC4(CC3)Cc3ccccc3C4N)nc1N)CC2(F)F (stereo not drawn) [Compound 115],
5,6,,Nc1nc2c(s1)CN(C(=O)c1ncc(N3CCC4(CC3)Cc3ccc(F)cc3C4N)nc1N)CC2(F)F (stereo not drawn) [Compound 116],
11,39,,NC(=O)c1nc(C(=O)N2Cc3sc(N)nc3C(F)(F)C2)cnc1N1CCC2(CC1)Cc1ccccc1C2N (stereo not drawn) [Compound 117],
6,5,,Nc1nc2c(s1)CN(C(=O)c1cnc(N3CCC4(CC3)Cc3ccc(F)cc3C4N)c(CO)n1)CC2(F)F (stereo not drawn) [Compound 118],
7,5,,COc1ccc2c(c1)C(N)C1(CCN(c3ncc(C(=O)N4Cc5sc(N)nc5C(F)(F)C4)nc3CO)CC1)C2 (stereo not drawn) [Compound 119],
8,,25,[2H]C1([2H])CN(C(=O)c2ncc(N3CCC4(CC3)Cc3ccc(OC)cc3C4N)nc2N)Cc2sc(N)nc21 (stereo not drawn) [Compound 122],
10,,,COc1ccc2c(c1)C(N)C1(CCN(c3cnc(C(=O)N4Cc5sc(N)nc5C(F)(F)C4)c(N)n3)CC1)C2 (stereo not drawn) [Compound 125],> 30000
6,,,Nc1nc2c(s1)CN(C(=O)c1cnc(N3CCC4(CC3)Cc3ccccc3C4N)c(CO)n1)CC2(F)F (stereo not drawn) [Compound 126],> 30000
7,13,,Nc1nc2c(s1)CN(C(=O)c1ncc(N3CCC4(CC3)Cc3ccccc3C4N)nc1N)CC2(F)F (stereo not drawn) [Compound 127],
5,,9,Nc1nc2c(s1)CN(C(=O)c1ncc(N3CCC4(CC3)Cc3cc(F)ccc3C4N)nc1N)CC2(F)F (stereo not drawn) [Compound 129],
37,860,,"N[C@@H]1c2ccccc2CC12CCN(c1cnc(C(=O)N3CCCc4ncccc43)cn1)CC2 [Compound D1, reference compound]",
